What is called solubility is the concentration that dissolves in the medium under given conditions.

Like-named read-outs stand apart in the source and are kept apart here.

The text below walks through data of US8193195B2, “Polymorphic forms of 1-'4-(5-cyanoindol-3-yl) butyl-4-(2-carbamoylbenzofuran-5-yl) piperazine hydrochloride” (Merck Patentgesellschaft, priority 2001, dated 2012).

Series [1] is described as follows: Solubility via potentiometric titration (pSOL solubility profiler). Conditions: for Solubility data: hydrochloride; for solubility: water, thermodynamic from solid. It is filed as physicochemical. As for the experimental part: Solubility data of Forms II, III, IV, V, VI and VIII are measured according to Alex Avdeef et al, Pharm. Pharmacol. Commun.
The pSOLTM solubility profiler, automatically collects potentiometric data, calculates the pH-solubility profiles, and prints the values at 0.1 pH unit intervals. Intrinsic solubilities in the milli-, micro- and nanogram levels can be determined. Also presented are two new concepts, the Flux Factor Profile and Dose Limit Profile. Both concepts follow the guidelines consistent with the BioPharmaceutics Classification Scheme.

Series [2] can be described thus: Thermodynamic stability of the forms, energy/temperature diagram (FIG. 27). It is filed as physicochemical. The source says:
FIG. 27 is an energy/temperature diagram of Forms III, IV and VII

Turning to `Cl.N#Cc1ccc2[nH]cc(CCCCN3CCN(c4ccc5oc(C(N)=O)cc5c4)CC3)c2c1` [Form I, 1-[4-(5-cyanoindol-3-yl)butyl]-4-(2-carbamoyl-benzofuran-5-yl)-piperazine hydrochloride], in series [1] (potentiometric titration according to Avdeef et al., listed as I), the Solubility data was determined as 0.08 µg/mL.

On to `Cl.N#Cc1ccc2[nH]cc(CCCCN3CCN(c4ccc5oc(C(N)=O)cc5c4)CC3)c2c1` [Form II, 1-[4-(5-cyanoindol-3-yl)butyl]-4-(2-carbamoyl-benzofuran-5-yl)-piperazine hydrochloride], for which the Solubility data in series [1] (potentiometric titration according to Avdeef et al., listed as II) was found to be 0.03 µg/mL.

On to `Cl.N#Cc1ccc2[nH]cc(CCCCN3CCN(c4ccc5oc(C(N)=O)cc5c4)CC3)c2c1` [Form III, 1-[4-(5-cyanoindol-3-yl)butyl]-4-(2-carbamoyl-benzofuran-5-yl)-piperazine hydrochloride], for which the “relative (thermodynamic) stability of the form at room temperature” value in series [2] (room temperature) was “the most stable form at room temperature”. The compound further yielded a Solubility data in series [1] (potentiometric titration according to Avdeef et al., listed as III) of 0.12 µg/mL.

Take `Cl.N#Cc1ccc2[nH]cc(CCCCN3CCN(c4ccc5oc(C(N)=O)cc5c4)CC3)c2c1` [Form IV, 1-[4-(5-cyanoindol-3-yl)butyl]-4-(2-carbamoyl-benzofuran-5-yl)-piperazine hydrochloride]: in series [2] (higher temperatures, e.g. >100° C.), the “relative stability of the form at higher temperatures” value was “the most stable form at higher temperatures”. Also, in series [1] (potentiometric titration according to Avdeef et al., listed as IV), the Solubility data was 0.33 µg/mL. In series [1] (in water, read-out: solubility in water), the solubility worked out at 0.328 µg/mL.

Turning to `Cl.N#Cc1ccc2[nH]cc(CCCCN3CCN(c4ccc5oc(C(N)=O)cc5c4)CC3)c2c1.O` [Form V, 1-[4-(5-cyanoindol-3-yl)butyl]-4-(2-carbamoyl-benzofuran-5-yl)-piperazine hydrochloride monohydrate], the solubility in series [1] (potentiometric titration according to Avdeef et al., read-out: Solubility data) is 0.18 µg/mL.

For `Cl.N#Cc1ccc2[nH]cc(CCCCN3CCN(c4ccc5oc(C(N)=O)cc5c4)CC3)c2c1` [Form VI, 1-[4-(5-cyanoindol-3-yl)butyl]-4-(2-carbamoyl-benzofuran-5-yl)-piperazine hydrochloride], the Solubility data in series [1] (potentiometric titration according to Avdeef et al., listed as VI) turned out to be 0.23 µg/mL.
